Measurements reported in article PMC10135569, “Does Enhanced Structural Maturity of hiPSC-Cardiomyocytes Better for the Detection of Drug-Induced Cardiotoxicity?” (Biomolecules, 2023).

Legend:
[1] = test system: hiPSC-CMs (iCell2 Cardiomyocytes) 2D monolayers; assay: Membrane potential (action potential) recordings with FluoVolt voltage-sensitive dye on the CellOPTIQ platform; assay type: cell-based, human; settings: for activity at 0.3 µM / activity at 1 µM / activity at 3 µM / activity at 10 µM: Homo sapiens, Cardiomyocyte, 0.5 h, 30 min, delta over DMSO 0.1%
How it was run: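 iCell2 hiPSC-CM monolayers (50,000 cells/well on fibronectin or Matrix Plus, days 5–6) were loaded with FluoVolt (1:1000, 20 min, 37 °C) and imaged at 37 °C with 470 nm excitation and 510–560 nm emission sampled at 10 kHz. Spontaneous action potentials were recorded for 10 s at baseline and 30 min after drug, with one of four concentrations per well (n = 8).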

[2] = test system: hiPSC-CMs (iCell2 Cardiomyocytes) 2D monolayers; assay: Contractility measurements using video imaging (ContractilityTool / MUSCLEMOTION); assay type: cell-based, human; settings: Homo sapiens, Cardiomyocyte, 0.5 h, 30 min, delta over DMSO 0.1%
How it was run: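 Monolayers on fibronectin or Matrix Plus coating, tested on days 5–6 in serum-free medium. Four concentrations, one per well, n = 8, with vehicle control.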

[3] = listed in Supplementary Table S1; no reference given; cited from earlier work
[4] = FM monolayer, read-out: APD30 (%DD)
[5] = FM monolayer, read-out: APD90 (%DD)
[6] = FM monolayer, read-out: CL (%DD)
[7] = FM monolayer, read-out: Trise (%DD)
[8] = MM monolayer, read-out: APD30 (%DD)
[9] = MM monolayer, read-out: APD90 (%DD)
[10] = MM monolayer, read-out: CL (%DD)
[11] = MM monolayer, read-out: Trise (%DD)
[12] = FM monolayer, read-out: CtAmp (%DD)
[13] = FM monolayer, read-out: CtD50 (%DD)
[14] = MM monolayer, read-out: CtAmp (%DD)
[15] = MM monolayer, read-out: CtD50 (%DD)
[16] = both FM and MM monolayers, concentration not given

With `Cc1[nH]c(=O)c(C#N)cc1-c1ccncc1` [Milrinone] as the compound, how does the activity at 0.3 µM [1, 4] read?
The activity at 0.3 µM was 96 ± 1.8%.

And the activity at 0.3 µM [1, 5]?
The activity at 0.3 µM was 96 ± 1.2%.

And the activity at 0.3 µM [1, 6]?
Its activity at 0.3 µM is 96 ± 1.6%.

What about the activity at 0.3 µM [1, 7] of the same compound?
The activity at 0.3 µM was 80 ± 13.1%.

And the activity at 1 µM [1, 4]?
Its activity at 1 µM is 100 ± 1%.

And the activity at 1 µM [1, 5]?
Its activity at 1 µM is 96 ± 0.7%.

And the activity at 1 µM [1, 6]?
The activity at 1 µM was 99 ± 0.8%.

And the activity at 1 µM [1, 7]?
Its activity at 1 µM is 74 ± 13.3%.

And the activity at 3 µM [1, 4]?
The activity at 3 µM was 96 ± 1.9%.

What about the activity at 3 µM [1, 5] of the same compound?
The activity at 3 µM was 94 ± 0.4%.

And the activity at 3 µM [1, 6]?
Its activity at 3 µM is 100 ± 0.7%.

What about the activity at 3 µM [1, 7] of the same compound?
The activity at 3 µM was 68 ± 7.3%.

What about the activity at 10 µM [1, 4] of the same compound?
Its activity at 10 µM is 92 ± 2%.

And the activity at 10 µM [1, 5]?
Its activity at 10 µM is 95 ± 1.1%.

What about the activity at 10 µM [1, 6] of the same compound?
Its activity at 10 µM is 103 ± 0.6%.

What about the activity at 10 µM [1, 7] of the same compound?
The activity at 10 µM was 106 ± 26.8%.

What about the activity at 0.3 µM [1, 8] of the same compound?
The activity at 0.3 µM was 96 ± 1.6%.

And the activity at 0.3 µM [1, 9]?
The activity at 0.3 µM was 97 ± 1.1%.

And the activity at 0.3 µM [1, 10]?
The activity at 0.3 µM was 97 ± 0.2%.

What about the activity at 0.3 µM [1, 11] of the same compound?
The activity at 0.3 µM was 112 ± 18.8%.

And the activity at 1 µM [1, 8]?
The activity at 1 µM was 97 ± 0.7%.

And the activity at 1 µM [1, 9]?
Its activity at 1 µM is 99 ± 0.5%.

What about the activity at 1 µM [1, 10] of the same compound?
Its activity at 1 µM is 100 ± 0.6%.

What about the activity at 1 µM [1, 11] of the same compound?
The activity at 1 µM was 125 ± 11.4%.

What about the activity at 3 µM [1, 8] of the same compound?
Its activity at 3 µM is 97 ± 1.4%.

And the activity at 3 µM [1, 9]?
Its activity at 3 µM is 102 ± 1.4%.

What about the activity at 3 µM [1, 10] of the same compound?
Its activity at 3 µM is 101 ± 0.5%.

And the activity at 3 µM [1, 11]?
Its activity at 3 µM is 132 ± 27.3%.

What about the activity at 10 µM [1, 8] of the same compound?
The activity at 10 µM was 95 ± 1%.

And the activity at 10 µM [1, 9]?
The activity at 10 µM was 100 ± 0.9%.

And the activity at 10 µM [1, 10]?
Its activity at 10 µM is 103 ± 0.2%.

And the activity at 10 µM [1, 11]?
The activity at 10 µM was 102 ± 7%.

What about the activity at 0.3 µM [2, 12] of the same compound?
The activity at 0.3 µM was 103 ± 10.9%.

What about the activity at 0.3 µM [2, 13] of the same compound?
Its activity at 0.3 µM is 101 ± 1.7%.

And the activity at 1 µM [2, 12]?
The activity at 1 µM was 116 ± 13.2%.

And the activity at 1 µM [2, 13]?
The activity at 1 µM was 104 ± 2.4%.

And the activity at 3 µM [2, 12]?
Its activity at 3 µM is 100 ± 8.4%.

And the activity at 3 µM [2, 13]?
The activity at 3 µM was 103 ± 1.7%.

What about the activity at 10 µM [2, 12] of the same compound?
Its activity at 10 µM is 81 ± 5.7%.

And the activity at 10 µM [2, 13]?
Its activity at 10 µM is 101 ± 1.7%.

And the activity at 0.3 µM [2, 14]?
Its activity at 0.3 µM is 131 ± 17.5%.

And the activity at 0.3 µM [2, 15]?
Its activity at 0.3 µM is 100 ± 1%.

What about the activity at 1 µM [2, 14] of the same compound?
The activity at 1 µM was 115 ± 6.3%.

What about the activity at 1 µM [2, 15] of the same compound?
Its activity at 1 µM is 105 ± 1.8%.

What about the activity at 3 µM [2, 14] of the same compound?
Its activity at 3 µM is 76 ± 9.1%.

What about the activity at 3 µM [2, 15] of the same compound?
The activity at 3 µM was 104 ± 1.5%.

And the activity at 10 µM [2, 14]?
The activity at 10 µM was 129 ± 28.5%.

What about the activity at 10 µM [2, 15] of the same compound?
Its activity at 10 µM is 100 ± 1.4%.

And the “Free Cmax” value [3]?
Its value is 2.32 µM.

With `C=C[C@H]1C[N@@]2CC[C@H]1C[C@@H]2[C@@H](O)c1ccnc2ccc(OC)cc12` [Quinidine] as the compound, how does the activity at 0.3 µM [1, 4] read?
The activity at 0.3 µM was 105 ± 2.9%.

What about the activity at 0.3 µM [1, 5] of the same compound?
The activity at 0.3 µM was 115 ± 2.5%.

And the activity at 0.3 µM [1, 7]?
Its activity at 0.3 µM is 103 ± 14%.

What about the activity at 1 µM [1, 4] of the same compound?
The activity at 1 µM was 104 ± 1.4%.

What about the activity at 1 µM [1, 5] of the same compound?
The activity at 1 µM was 122 ± 1.4%.

And the activity at 1 µM [1, 7]?
The activity at 1 µM was 135 ± 8.3%.

What about the activity at 0.3 µM [1, 8] of the same compound?
The activity at 0.3 µM was 104 ± 1.4%.

What about the activity at 0.3 µM [1, 9] of the same compound?
Its activity at 0.3 µM is 108 ± 1.2%.

What about the activity at 0.3 µM [1, 11] of the same compound?
The activity at 0.3 µM was 111 ± 15.7%.

And the activity at 1 µM [1, 8]?
The activity at 1 µM was 100 ± 1.2%.

What about the activity at 1 µM [1, 9] of the same compound?
The activity at 1 µM was 115 ± 0.8%.

And the activity at 1 µM [1, 11]?
Its activity at 1 µM is 123 ± 15%.

What about the activity at 3 µM [1, 8] of the same compound?
Its activity at 3 µM is 103 ± 2.1%.

What about the activity at 3 µM [1, 9] of the same compound?
Its activity at 3 µM is 121 ± 1.2%.

And the activity at 3 µM [1, 11]?
Its activity at 3 µM is 188 ± 23.3%.

What about the “effect on AP rise time (Trise) (in words)” value [1, 16] of the same compound?
The value was “increased”.

What about the “effect on APD90 (in words)” value [1, 16] of the same compound?
Its value is “increased”.

And the “effect on cycle length (in words)” value [1, 16]?
The value was “increased”.

What about the “electrical activity of the monolayers at higher concentrations” value ([1]; higher concentrations, FM and MM) of the same compound?
The value was “electrically quiescent”.

And the activity at 0.3 µM [2, 12]?
Its activity at 0.3 µM is 66 ± 15.3%.

What about the activity at 0.3 µM [2, 13] of the same compound?
Its activity at 0.3 µM is 111 ± 6.3%.

And the activity at 1 µM [2, 12]?
The activity at 1 µM was 162 ± 50.3%.

What about the activity at 1 µM [2, 13] of the same compound?
The activity at 1 µM was 106 ± 1.8%.

And the activity at 0.3 µM [2, 14]?
The activity at 0.3 µM was 118 ± 21.6%.

What about the activity at 0.3 µM [2, 15] of the same compound?
Its activity at 0.3 µM is 107 ± 2.7%.

And the activity at 1 µM [2, 14]?
The activity at 1 µM was 99 ± 13.1%.

What about the activity at 1 µM [2, 15] of the same compound?
The activity at 1 µM was 97 ± 2.5%.

And the activity at 3 µM [2, 14]?
Its activity at 3 µM is 106 ± 11.4%.

And the activity at 3 µM [2, 15]?
Its activity at 3 µM is 105 ± 1.5%.

What about the “Free Cmax” value [3] of the same compound?
Its value is 0.92 µM.
